Source: the supplement of paper PMC11061612

Columns and labels:
Experiment in all cases: Bliss excess, mean over the matrix (fraction); higher = more synergy
[1] = test system: AN3-CA (Endometrial Carcinoma)
Summary of the method: (§1)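 Cell lines in DMEM/F12 or RPMI with 10% FBS were plated in 1536-well plates, held 24 hours at 37°C, 5% CO2, then given two-drug dose matrices for 72 hours (DMSO typically 0.2%). Viability was read by CellTiter-Glo 2.0 luminescence and scaled as inhibition from 0 (vehicle wells) to 1 (blank wells). Combination Emax is the second-highest inhibition in the matrix; Bliss excess is observed combination effect minus expected EA + EB − EA·EB, EA and EB being single-agent effects.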

[2] = test system: NCI-H1623 (Lung Adenocarcinoma)
Summary of the method: as §1

786-0 (Kidney Carcinoma) = test system: 786-0 (Kidney Carcinoma)
Summary of the method: as §1

HuO-3N1 (Osteosarcoma) = test system: HuO-3N1 (Osteosarcoma)
Summary of the method: as §1

[3] = test system: EB-3 (Burkitt's Lymphoma)
Summary of the method: as §1

CHL-1 (Melanoma) = test system: CHL-1 (Melanoma)
Summary of the method: as §1

[4] = test system: PANC-02-03 (Pancreatic Carcinoma)
Summary of the method: as §1

[5] = test system: PC-14 (Lung Adenocarcinoma)
Summary of the method: as §1

[6] = test system: NCI-H1755 (Lung Adenocarcinoma)
Summary of the method: as §1

[7] = test system: OV-90 (Ovarian Carcinoma)
Summary of the method: as §1

[8] = test system: FLO-1 (Esophageal Adenocarcinoma)
Summary of the method: as §1

KYM-1 (Rhabdomyosarcoma) = test system: KYM-1 (Rhabdomyosarcoma)
Summary of the method: as §1

[9] = test system: OCI-AML5 (Acute Myeloid Leukemia)
Summary of the method: as §1

[10] = test system: NCI-H196 (Small Cell Lung Carcinoma)
Summary of the method: as §1

[11] = test system: HSC-3 (Oral Cavity Carcinoma)
Summary of the method: as §1

[12] = test system: AsPC-1 (Pancreatic Carcinoma)
Summary of the method: as §1

[13] = test system: SNU-175 (Colorectal Carcinoma)
Summary of the method: as §1

[14] = test system: COLO-684 (Endometrial Carcinoma)
Summary of the method: as §1

[15] = test system: NCI-H1155 (Non-Small Cell Lung Carcinoma)
Summary of the method: as §1

| Structure (SMILES) | Bliss excess [1] | Bliss excess [2] | Bliss excess (786-0 (Kidney Carcinoma)) | Bliss excess (HuO-3N1 (Osteosarcoma)) | Bliss excess [3] | Bliss excess (CHL-1 (Melanoma)) | Bliss excess [4] | Bliss excess [5] | Bliss excess [6] | Bliss excess [7] | Bliss excess [8] | Bliss excess (KYM-1 (Rhabdomyosarcoma)) | Bliss excess [9] | Bliss excess [10] | Bliss excess [11] | Bliss excess [12] | Bliss excess [13] | Bliss excess [14] | Bliss excess [15] |
| --- | --- | --- | --- | --- | --- | --- | --- | --- | --- | --- | --- | --- | --- | --- | --- | --- | --- | --- | --- |
| CN(C)CCCOc1ccc(-c2ccc3ncc4c(c3c2)n(C2CCOCC2)c(=O)n4C)cn1 [AZD0156] + O=C(c1cc(Cc2n[nH]c(=O)c3ccccc23)ccc1F)N1CCN(C(=O)C2CC2)CC1 [Olaparib] (first compound max 3 µM, partner max 3 µM) | 0.0263 | 0.0126 | 0.0418 | -0.0328 | 0.0234 | -0.0224 | 0.0278 | -0.0009 | -0.0055 | 0.035 | 0.0512 | 0.185 | 0.0103 | -0.0505 | 0.132 | 0.005 | 0.105 | 0.0274 | 0.103 |
| C=CCn1c(=O)c2cnc(Nc3ccc(N4CCN(C)CC4)cc3)nc2n1-c1cccc(C(C)(C)O)n1 [AZD1775] + C1CN(CCC1(C(=O)N[C@@H](CCO)C2=CC=C(C=C2)Cl)N)C3=NC=NC4=C3C=CN4 [Capivasertib] (first compound max 3 µM, partner max 3 µM) | 0.0797 | -0.0576 | -0.0169 | -0.0033 | -0.111 | 0.0106 | -0.018 | -0.018 | -0.0691 | -0.0235 | -0.0228 | -0.0084 | -0.0443 | -0.118 | 0.0552 | -0.0654 | 0.0244 | -0.0937 | 0.0056 |
| COc1nnc2ccc(N3CCC(c4ccc(OCCN5CCN(C)C(=O)[C@H]5C)cc4)CC3)nn12 [AZD5153] + C=CCn1c(=O)c2cnc(Nc3ccc(N4CCN(C)CC4)cc3)nc2n1-c1cccc(C(C)(C)O)n1 [AZD1775] (first compound max 1 µM, partner max 1 µM) | -0.0624 | -0.0101 | -0.0163 | -0.0584 | -0.114 | -0.0434 | -0.0823 | -0.0488 | -0.0088 | -0.0367 | 0.0001 | -0.0249 | -0.0106 | -0.0574 | -0.0396 | 0.0167 | -0.0647 | -0.0852 | 0.0523 |
| COc1nnc2ccc(N3CCC(c4ccc(OCCN5CCN(C)C(=O)[C@H]5C)cc4)CC3)nn12 [AZD5153] + CC1(C)CCC(CN2CCN(c3ccc(C(=O)NS(=O)(=O)c4ccc(NCC5CCOCC5)c([N+](=O)[O-])c4)c(Oc4cnc5[nH]ccc5c4)c3)CC2)=C(c2ccc(Cl)cc2)C1 [Venetoclax] (first compound max 1 µM, 7x7, partner max 1 µM) | -0.0347 | -0.0448 | -0.0762 | -0.0576 | 0.0042 | -0.0297 | -0.0263 | -0.03 | -0.0416 | -0.085 | -0.005 | -0.0124 | 0.0114 | -0.0351 | -0.0846 | -0.0807 | -0.0392 | -0.0435 | 0.0223 |
| COc1nnc2ccc(N3CCC(c4ccc(OCCN5CCN(C)C(=O)[C@H]5C)cc4)CC3)nn12 [AZD5153] + CCN(CCO)CCCOc1ccc2c(Nc3cc(CC(=O)Nc4cccc(F)c4)[nH]n3)ncnc2c1 [AZD2811] (first compound max 1 µM, 7x7, partner max 1 µM) | -0.0375 | -0.0117 | -0.0274 | -0.0705 | -0.0701 | 0.0413 | -0.0809 | -0.0017 | -0.0058 | -0.0226 | -0.0165 | -0.0682 | -0.0282 | -0.0285 | -0.0509 | -0.0427 | -0.112 | 0.0152 | 0.0177 |
| COc1nnc2ccc(N3CCC(c4ccc(OCCN5CCN(C)C(=O)[C@H]5C)cc4)CC3)nn12 [AZD5153] + CN(CC[C@H](CSC1=CC=CC=C1)NC2=C(C=C(C=C2)S(=O)(=O)NC(=O)C3=CC=C(C=C3)N4CCC(CC4)[C@H](C5=CC=CC=C5C6=CC=C(C=C6)Cl)O)S(=O)(=O)C(F)(F)F)CCO [AZD4320] (first compound max 1 µM, 7x7, partner max 1 µM) | 0.0161 | -0.0087 | 0.0508 | 0.0645 |  |  |  | 0.0111 |  |  |  |  | 0.0299 | 0.0277 | 0.0794 | -0.08 | 0.002 |  | 0.0603 |
| COc1nnc2ccc(N3CCC(c4ccc(OCCN5CCN(C)C(=O)[C@H]5C)cc4)CC3)nn12 [AZD5153] + C[C@@H]1COCCN1C2=NC(=NC(=C2)C3(CC3)[S@](=N)(=O)C)C4=C5C=CNC5=NC=C4 [AZD6738] (first compound max 1 µM, 7x7, partner max 10 µM) | -0.0311 | -0.0247 | 0.0479 | 0.0085 | -0.104 | -0.0569 | -0.0366 | 0.0294 | 0.0198 | -0.0249 | 0.0257 | -0.0398 | 0.0158 | 0.036 | -0.0181 | 0.0778 | 0.0289 | -0.0231 | 0.0406 |
| COc1nnc2ccc(N3CCC(c4ccc(OCCN5CCN(C)C(=O)[C@H]5C)cc4)CC3)nn12 [AZD5153] + Cc1c2c(nn1C)CSCc1cc(n(C)n1)CSc1cc(c3ccccc3c1)OCCCc1c(C(=O)O)n(C)c3c-2c(Cl)ccc13 [AZD5991] (first compound max 1 µM, 7x7, partner max 1 µM) | -0.0205 | 0.049 | -0.0166 | -0.0118 | -0.0048 | 0.0613 | -0.0493 | -0.0145 | -0.0785 | -0.0389 | -0.0352 | 0.0335 | 0.134 | 0.0074 | -0.0069 | -0.0639 | 0.0113 | -0.0106 | -0.0091 |
| COc1nnc2ccc(N3CCC(c4ccc(OCCN5CCN(C)C(=O)[C@H]5C)cc4)CC3)nn12 [AZD5153] + Cn1cnc2c(F)c(Nc3ccc(Br)cc3Cl)c(C(=O)NOCCO)cc21 [Selumetinib] (first compound max 1 µM, 7x7, partner max 10 µM) | -0.0484 | 0.0294 | 0.0143 | -0.0026 | -0.0591 | 0.0049 | 0.0742 | 0.007 | 0.0053 | -0.0203 | 0.0012 | 0.0086 | 0.0945 | -0.0296 | -0.0211 | -0.0238 | -0.0007 | -0.0134 | -0.035 |
| NC1(C(=O)N[C@@H](CCO)c2ccc(Cl)cc2)CCN(c2ncnc3[nH]ccc23)CC1 [Capivasertib] + CC(=O)c1c(C)c2cnc(Nc3ccc(N4CCNCC4)cn3)nc2n(C2CCCC2)c1=O [Palbociclib] (first compound max 10 µM, 7x7, partner max 10 µM) | -0.0282 | -0.0156 | 0.0245 | -0.105 | -0.0328 | -0.0082 | -0.0351 | 0.0388 | 0.0036 | -0.0562 | -0.0218 | -0.0312 | -0.0096 | -0.0706 | -0.0076 | -0.025 | -0.0442 | -0.0759 | -0.0084 |
| NC1(C(=O)N[C@@H](CCO)c2ccc(Cl)cc2)CCN(c2ncnc3[nH]ccc23)CC1 [Capivasertib] + CC(C)n1c(=O)n(C)c2cnc3cc(F)c(-c4ccc(OCCCN5CCCCC5)nc4)cc3c21 [AZD1390] (first compound max 10 µM, 7x7, partner max 0.3 µM) | -0.0057 | -0.024 | -0.0997 | -0.101 | 0.0022 | -0.0209 | -0.013 | -0.0168 | -0.0407 | -0.0325 | -0.0398 | -0.0278 | -0.0369 | -0.0439 | -0.0746 | -0.0512 | -0.0346 | -0.0909 | -0.031 |
| NC1(C(=O)N[C@@H](CCO)c2ccc(Cl)cc2)CCN(c2ncnc3[nH]ccc23)CC1 [Capivasertib] + CCN(CCO)CCCOc1ccc2c(Nc3cc(CC(=O)Nc4cccc(F)c4)[nH]n3)ncnc2c1 [AZD2811] (first compound max 10 µM, 7x7, partner max 1 µM) | 0.0151 | 0.0004 | -0.0352 | -0.0379 | 0.0152 | -0.0092 | -0.0261 | 0.028 | -0.0289 | -0.0272 | -0.0049 | -0.0457 | -0.0465 | -0.0276 | -0.0374 | -0.0655 | 0.0058 | 0.0272 | -0.0152 |
| NC1(C(=O)N[C@@H](CCO)c2ccc(Cl)cc2)CCN(c2ncnc3[nH]ccc23)CC1 [Capivasertib] + COc1nnc2ccc(N3CCC(c4ccc(OCCN5CCN(C)C(=O)[C@H]5C)cc4)CC3)nn12 [AZD5153] (first compound max 10 µM, 7x7, partner max 1 µM) | 0.0778 | 0.0638 | 0.0014 | 0.0531 | -0.0529 | 0.0143 | 0.0132 | 0.0461 | -0.0278 | 0.0045 | 0.0115 | -0.0306 | 0.0552 | 0.0227 | 0.0078 | -0.0273 | -0.055 | -0.0133 | 0.0992 |
| CC(=O)c1c(C)c2cnc(Nc3ccc(N4CCNCC4)cn3)nc2n(C2CCCC2)c1=O [Palbociclib] + CN(CC[C@H](CSC1=CC=CC=C1)NC2=C(C=C(C=C2)S(=O)(=O)NC(=O)C3=CC=C(C=C3)N4CCC(CC4)[C@H](C5=CC=CC=C5C6=CC=C(C=C6)Cl)O)S(=O)(=O)C(F)(F)F)CCO [AZD4320] (first compound max 10 µM, 7x7, partner max 1 µM) | 0.0108 | -0.0783 | -0.0388 | -0.0289 |  |  |  | -0.0307 |  |  |  |  | -0.0327 | -0.0489 | -0.0254 | -0.129 | -0.0082 |  | 0.0351 |
| C[C@@H](c1ccc2nccn2c1)n1nnc2ncc(-c3cnn(C)c3)nc21 [Savolitinib] + CN(CC[C@H](CSC1=CC=CC=C1)NC2=C(C=C(C=C2)S(=O)(=O)NC(=O)C3=CC=C(C=C3)N4CCC(CC4)[C@H](C5=CC=CC=C5C6=CC=C(C=C6)Cl)O)S(=O)(=O)C(F)(F)F)CCO [AZD4320] (first compound max 1 µM, 7x7, partner max 1 µM) | -0.0575 | -0.0231 | -0.0642 | -0.0513 |  |  |  | 0.0011 |  |  |  |  | -0.0418 | -0.0847 | -0.0152 | -0.0896 | -0.045 |  | -0.0513 |
